The source of these data is publication PMC10175255, “The cell wall lipoprotein CD1687 acts as a DNA binding protein during deoxycholate-induced biofilm formation in Clostridioides difficile” (NPJ Biofilms and Microbiomes, 2023).

This assay deals with T1, CD1687 (Clostridioides difficile, UniProt Q186P2).
T1 construct: gene CD630_16870; signal peptide removed, hexahistidine tag kept, expressed in E. coli Bli5 from a pET20-derived plasmid, Ni-NTA purified
The experiment in a line: surface plasmon resonance (Biacore T200), His-tagged protein captured on Ni-NTA chip. The class given is binding. (Surface plasmon resonance follows binding to a sensor surface in real time, without labels.)

T1 sequence (Q186P2 entry or part of it): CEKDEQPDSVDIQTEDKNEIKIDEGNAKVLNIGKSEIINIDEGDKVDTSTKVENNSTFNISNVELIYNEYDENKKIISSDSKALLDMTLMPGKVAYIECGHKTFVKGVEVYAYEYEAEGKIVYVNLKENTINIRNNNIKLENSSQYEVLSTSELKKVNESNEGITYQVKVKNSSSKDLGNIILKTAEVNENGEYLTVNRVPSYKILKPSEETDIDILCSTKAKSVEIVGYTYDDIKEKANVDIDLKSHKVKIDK

Take `C[C@H](CCC(=O)O)[C@H]1CC[C@H]2[C@@H]3CC[C@@H]4C[C@H](O)CC[C@]4(C)[C@H]3C[C@H](O)[C@]12C` [deoxycholate]: the Kd is 1650 ± 580 µM.

Usually Kd stands for a measure of binding affinity in units of concentration. High values mean a looser complex, low ones a tighter complex.
